These results are taken from patent US8022053B2, “Oral solid dosage forms containing a low dose of estradiol” (Bayer Schering Pharma Aktiengesellschaft, priority 2004, dated 2011).

Marks after values point to notes of the source that are not given here.

Data set [1] is described as follows: Bioavailability study, serum levels of estradiol after a single oral tablet. It is filed as in vivo, healthy postmenopausal women. Particulars: fasted, for an extended period of time. As to the method:
A bioavailability study was conducted in order to determine the serum levels of estradiol after single administration of a tablet formulation identical to the one described in Example 2 containing 190 μg and 100 μg of micronised estradiol hemihydrate, respectively. The study design was open labelled, 3 periods, 3 treatments, cross-over design with a single administration of each treatment and two weeks' washout between each period. The study population were 24 healthy postmenopausal women, age 55-75. Fasted condition was held.
The full-drawn line refers to the mean serum levels of estradiol achieved by administering a single dose of 190 μg to the study population, and the dotted line refers to the mean serum levels of estradiol achieved by administering a single dose of 100 μg to the study population. The mean serum level of endogenous estradiol was 3-3.5 pg/ml.

A short description of data set [2]: In vitro dissolution of micronised estradiol and estradiol/polyvinylpyrrolidone powder mixtures (USP apparatus 2, paddle). It is filed as physicochemical. The conditions noted are these: 900 ml purified water, 37° C., 50 rpm, powder corresponding to 100 μg estradiol hemihydrate. As to the method: The dissolution characteristics of micronised estradiol and mixtures of micronised estradiol and polyvinylpyrrolidone, respectively, were investigated in an in vitro dissolution test system. The dissolution tester was a USP apparatus 2 (paddle system) (See <711> of USP 27) using 900 ml of purified water temperated at 37° C. as the dissolution media and a rotation speed of 50 rpm. The estradiol and the mixtures in powdery form were placed into the dissolution vessels in an amount corresponding to 100 μg of micronised estradiol hemihydrate.

For data set [3] the following is noted: daily oral administration of 1 to 3 mg of estradiol; cited from earlier work.

With `C[C@]12CC[C@@H]3c4ccc(O)cc4CC[C@H]3[C@@H]1CC[C@@H]2O` [micronised estradiol hemihydrate, estradiol hemihydrate], the “Mean serum levels of estradiol” value in data set [1] (Example 2 tablet with 100 μg (printed 100 pg)) and in data set [1] (Example 2 tablet with 190 μg) was 5 to 20 pg/mL in each case. For the same compound, in data set [2] (5 min), the “Amount of estradiol (μg) dissolved after 5 min” value was <3* μg. The “Amount of estradiol (μg) dissolved after 10 min” value in data set [2] (10 min) is recorded as <3* μg. Further, in data set [2] (20 min), the “Amount of estradiol (μg) dissolved after 20 min” value is on record as <3* μg. In addition, in data set [2] (30 min), the “Amount of estradiol (μg) dissolved after 30 min” value is recorded as <3* μg. In addition, in data set [2] (60 min), the “Amount of estradiol (μg) dissolved after 60 min” value is less than 3 µg.
For `C[C@]12CC[C@@H]3c4ccc(O)cc4CC[C@H]3[C@@H]1CC[C@@H]2O` [estradiol], in data set [3], the Bioavailability is reported as 3-5%.
